Laboratory results published in publication PMC8119294 (Biochemistry, 2020).

Tests used:
human KOP = conditions: HEK 293 cells; cited from earlier work
human DOP = conditions: HEK 293 cells, very low potency; cited from earlier work
hMOP Asn129K mutant = hMOP Asn129K mutant (Homo sapiens, UniProt P35372, N129K); test: Gαi-mediated cAMP inhibition assay, hMOP Asn129K mutant; format: cell-based; conditions: for Emax: normalized to Emax of DAMGO
DOP = conditions: read-out: Ki at DOP; CHO cells; cited from earlier work
rats = conditions: hot plate assay; cited from earlier work
[1] = target: human opioid receptor OPRM_HUMAN (hMOP), wild type (Homo sapiens, UniProt P35372); format: cell-based; conditions: for Emax: WT hMOP, normalized to Emax of DAMGO
human MOP = conditions: HEK 293 cells; cited from earlier work
hMOP H321F mutant = hMOP H321F mutant (Homo sapiens, UniProt P35372, H321F); test: Gαi-mediated cAMP inhibition assay, hMOP H321F mutant; format: cell-based; conditions: for potency reduction at His321F mutant compared to wild-type receptor: EC50 mutant vs wild type; for decrease in efficacy at His321F mutant: Emax mutant vs wild type; for Emax: normalized to Emax of DAMGO
KOP = conditions: read-out: Ki at KOP; CHO cells; cited from earlier work
mice = conditions: radiant heat tail flick assay; cited from earlier work
MOP = conditions: read-out: Ki at MOP; CHO cells; cited from earlier work
opioid receptors = conditions: read-out: Ki for opioid receptors; cited from earlier work
α-adrenergic receptors = conditions: read-out: Ki for α-adrenergic receptors; cited from earlier work
[2] = HEK 293T cells, hMOP Asn129K mutant, cAMP assay, Gi
[3] = HEK 293T cells, wild type (WT) hMOP, cAMP assay, Gi
[4] = HEK 293T cells, hMOP H321F mutant, cAMP assay, Gi

Chain of hMOP Asn129K mutant (P35372 whole entry N129K): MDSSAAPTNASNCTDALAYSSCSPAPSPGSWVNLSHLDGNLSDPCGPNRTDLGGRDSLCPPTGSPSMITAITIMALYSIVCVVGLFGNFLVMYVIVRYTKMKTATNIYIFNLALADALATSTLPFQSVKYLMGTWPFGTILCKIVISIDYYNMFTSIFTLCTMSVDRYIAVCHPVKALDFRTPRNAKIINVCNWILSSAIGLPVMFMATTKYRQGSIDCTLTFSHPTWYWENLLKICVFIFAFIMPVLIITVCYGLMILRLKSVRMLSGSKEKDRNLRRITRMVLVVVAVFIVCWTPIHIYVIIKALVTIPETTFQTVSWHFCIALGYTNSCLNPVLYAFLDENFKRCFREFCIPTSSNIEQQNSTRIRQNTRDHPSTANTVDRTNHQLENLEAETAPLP
Chain of human opioid receptor OPRM_HUMAN (hMOP), wild type (P35372 whole entry): as the sequence (P35372 whole entry N129K) above, with K129N counted along it
Chain of hMOP H321F mutant (P35372 whole entry H321F): as the sequence (P35372 whole entry N129K) above, with K129N, H321F counted along it

Row | Compound | functional activity at human KOP (human KOP) | functional activity at human DOP (human DOP) | Emax (hMOP Asn129K mutant; hMOP Asn129K mutant) [%] | Ki (DOP) [nM] | analgesic effect compared to morphine (rats) | Emax [1] [%] | functional activity at human MOP (human MOP) | potency reduction at His321F mutant compared to wild-type receptor (hMOP H321F mutant; cAMP assay) [fold] | decrease in efficacy at His321F mutant (hMOP H321F mutant; cAMP assay) [%] | Emax (hMOP H321F mutant; hMOP H321F mutant) [%] | Ki (KOP) [nM] | analgesic effect compared to morphine (mice) | Ki (MOP) [nM] | further results
1 | CC[C@@H]1CN2CC[C@@]3(O)C(=Nc4cccc(OC)c43)[C@@H]2C[C@@H]1/C(=C\OC)C(=O)OC [7OH, 7-hydroxymitragynine] | competitive antagonists | competitive antagonists | 92 ± 3.2 | 91 ± 8 | significantly more potent than morphine | 89±3.8 | partial agonists | 2.5 | > 25 | 60 ± 9 | 132 ± 7 | significantly more potent than morphine | 37 ± 4 | potency reduction at Asn129K mutant compared to wild-type receptor (hMOP Asn129K mutant; EC50 mutant vs wild type, cAMP assay): 5 fold
2 | CC[C@@H]1CN2CC[C@]3(Nc4cccc(OC)c4C3=O)[C@@H]2C[C@@H]1/C(=C\OC)C(=O)OC [MP, mitragynine pseudoindoxyl] | – | – | 88 ± 2.97 | 3 ± 1.3 | – | 81±3.6 | – | 32 | > 25 | 58.9 ± 6.7 | 24 ± 0.9 | – | 0.8 ± 0.2 | EC50 (hMOP Asn129K mutant; [2]): 0.9 nM; pEC50 ± SEM (hMOP Asn129K mutant; [2]): 9.04 ± 0.084; EC50 [1, 3]: 0.55 nM; pEC50 ± SEM [1, 3]: 9.28±0.11; EC50 (hMOP H321F mutant; [4]): 16.9 nM; pEC50 ± SEM (hMOP H321F mutant; [4]): 7.77 ± 0.27; potency relative to morphine (mice): 1.5 fold
3 | mitragynine [MG] | competitive antagonists | competitive antagonists | – | – | significantly lower than morphine | – | partial agonists | – | – | – | – | significantly lower than morphine | 230 ± 47 | Ki (opioid receptors): 161 to 198 nM; Ki (α-adrenergic receptors): 1340 to 9290 nM
